From ChEMBL document CHEMBL1201862, “PubChem BioAssay data set” (2004)
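These data come from cells grown in 96-well plates and exposed to compound for 48 hours at five concentrations. The concentration for 50% growth inhibition is given as GI50.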 Active and inactive are the calls of the source. No stated cut-off is given here; in the data, active = GI50 up to about 1.1 µM and inactive = higher.

What was measured:
Assay in all cases: growth of human tumour cells (NCI), 48 h
[1] = tested on: 786-0
[2] = tested on: ACHN
[3] = tested on: COLO 205
[4] = tested on: HCT-15
[5] = tested on: HL-60
[6] = tested on: Malme-3M
[7] = tested on: NCI-H23
[8] = tested on: OVCAR-3
[9] = tested on: OVCAR-4
[10] = tested on: OVCAR-5
[11] = tested on: OVCAR-8
[12] = tested on: SK-OV-3
[13] = tested on: SNB-75
[14] = tested on: SR
[15] = tested on: U-251
[16] = tested on: UACC-257
[17] = tested on: RPMI-8226
[18] = tested on: SF-295

Structure (SMILES) | GI50 [1] | GI50 [2] | GI50 [3] | GI50 [4] [µM] | GI50 [5] | GI50 [6] | GI50 [7] | GI50 [8] | GI50 [9] | GI50 [10] | GI50 [11] | GI50 [12] | GI50 [13] | GI50 [14] | GI50 [15] | GI50 [16] | GI50 [17] | GI50 [18]
COC(=O)Cc1nn2c(nc1=O)sc1ccc3ccccc3c12 | 44.3 µM (inactive) | 56.9 µM (inactive) | > 100 µM (inactive) | > 100 | > 100 µM (inactive) | > 100 µM (inactive) | > 100 µM (inactive) | > 100 µM (inactive) | > 100 µM (inactive) | > 100 µM (inactive) | 43.2 µM (inactive) | > 100 µM (inactive) | 37.3 µM (inactive) | > 100 µM (inactive) | 25.1 µM (inactive) | > 100 µM (inactive) |  | 
Cc1ccc([Se][Se]c2ccc(C)cc2)cc1 | 18.6 µM (inactive) | 25.3 µM (inactive) | > 100 µM (inactive) | 9.35 | 4.02 µM (inactive) | 32.4 µM (inactive) | 23.8 µM (inactive) | 31.6 µM (inactive) | 12.5 µM (inactive) |  | 45.3 µM (inactive) | > 100 µM (inactive) | 7.91 µM (inactive) |  | 3.18 µM (inactive) | 17 µM (inactive) | 5.02 µM (inactive) | 23.3 µM (inactive)
O=C(CSc1nc(=O)c(-c2ccccc2NC(=O)C(F)(F)F)n[nH]1)NC(=O)Nc1ccccc1 | > 100 µM (inactive) |  | > 100 µM (inactive) | > 100 |  | > 100 µM (inactive) | > 100 µM (inactive) | > 100 µM (inactive) |  | > 100 µM (inactive) | > 100 µM (inactive) | 39 µM (inactive) | 21.3 µM (inactive) | > 100 µM (inactive) | > 100 µM (inactive) |  |  | > 100 µM (inactive)
CC1=C(O)C(=O)C2C(=O)C1C(C)C2c1ccc(C)cc1 (stereo unspecified) | > 100 µM (inactive) | > 100 µM (inactive) | > 100 µM (inactive) | > 100 |  | > 100 µM (inactive) | > 100 µM (inactive) | > 100 µM (inactive) | > 100 µM (inactive) | > 100 µM (inactive) | > 100 µM (inactive) | > 100 µM (inactive) | 98.9 µM (inactive) | > 100 µM (inactive) | > 100 µM (inactive) | > 100 µM (inactive) | > 100 µM (inactive) | > 100 µM (inactive)
CC(C)C1N2CCCCC2[C@@H]2c3[nH]c4ccccc4c3CCN12 (stereo partly specified) | > 100 µM (inactive) | > 100 µM (inactive) | > 100 µM (inactive) | > 100 | > 100 µM (inactive) |  | > 100 µM (inactive) | > 100 µM (inactive) | > 100 µM (inactive) | > 100 µM (inactive) | > 100 µM (inactive) | > 100 µM (inactive) | > 100 µM (inactive) |  | > 100 µM (inactive) | > 100 µM (inactive) | > 100 µM (inactive) | > 100 µM (inactive)
CC(=O)NC(CCCCN(Cc1ccccc1)C(=O)N(C)N=O)C(=O)NCc1ccccc1 (stereo unspecified) | > 100 µM (inactive) | > 100 µM (inactive) | 88.3 µM (inactive) | > 100 |  | 82 µM (inactive) | > 100 µM (inactive) | > 100 µM (inactive) | 62.2 µM (inactive) | > 100 µM (inactive) | > 100 µM (inactive) | > 100 µM (inactive) | 31.9 µM (inactive) |  | > 100 µM (inactive) | > 100 µM (inactive) | 40.6 µM (inactive) | > 100 µM (inactive)
C[C@]12Cc3cn[nH]c3C(=O)C1CC[C@@H]1C2CC[C@@]2(C)C1CC[C@]2(C)O (stereo partly specified) | 89.5 µM (inactive) | > 100 µM (inactive) | > 100 µM (inactive) | > 100 | > 100 µM (inactive) | > 100 µM (inactive) | > 100 µM (inactive) | > 100 µM (inactive) | > 100 µM (inactive) | > 100 µM (inactive) | > 100 µM (inactive) | > 100 µM (inactive) | 39.7 µM (inactive) |  | > 100 µM (inactive) | > 100 µM (inactive) | > 100 µM (inactive) | > 100 µM (inactive)
O=c1[nH]c2cc(-c3ccccc3)nc-2nn1-c1c(Cl)cc(Cl)cc1Cl | 30.8 µM (inactive) |  | 15.1 µM (inactive) | 36 | 20.5 µM (inactive) | 24.4 µM (inactive) | 24.9 µM (inactive) | 23.2 µM (inactive) |  | 39.4 µM (inactive) | 37.4 µM (inactive) | 25.8 µM (inactive) |  | 23.7 µM (inactive) | 19.1 µM (inactive) | 29.5 µM (inactive) | 24.3 µM (inactive) | 32.1 µM (inactive)
COc1cc(Cl)c2c3c(c(C(C)=O)oc13)CCC2 | > 100 µM (inactive) | > 100 µM (inactive) | > 100 µM (inactive) | > 100 | > 100 µM (inactive) |  | > 100 µM (inactive) | > 100 µM (inactive) | > 100 µM (inactive) |  | > 100 µM (inactive) | > 100 µM (inactive) | > 100 µM (inactive) |  | > 100 µM (inactive) | > 100 µM (inactive) | 86.9 µM (inactive) | > 100 µM (inactive)
Cc1ccccc1N(CC(=O)O)S(=O)(=O)c1ccccc1 | > 100 µM (inactive) | > 100 µM (inactive) | > 100 µM (inactive) | > 100 | > 100 µM (inactive) | > 100 µM (inactive) | > 100 µM (inactive) | > 100 µM (inactive) | > 100 µM (inactive) | > 100 µM (inactive) | > 100 µM (inactive) | > 100 µM (inactive) | > 100 µM (inactive) |  | > 100 µM (inactive) | > 100 µM (inactive) | > 100 µM (inactive) | > 100 µM (inactive)
CC(=O)CCCCO | > 100 µM (inactive) | > 100 µM (inactive) | > 100 µM (inactive) | > 100 | > 100 µM (inactive) | > 100 µM (inactive) | > 100 µM (inactive) | > 100 µM (inactive) | > 100 µM (inactive) | > 100 µM (inactive) | > 100 µM (inactive) | > 100 µM (inactive) | > 100 µM (inactive) |  | > 100 µM (inactive) | > 100 µM (inactive) | > 100 µM (inactive) | > 100 µM (inactive)
C[C@]12CC[C@H](OC(=O)Nc3ccccc3)CC1=CC[C@@H]1C2CC[C@]2(C)/C(=N/OC(=O)Nc3ccccc3)CCC12 (stereo partly specified) | > 100 µM (inactive) | 7.14 µM (inactive) | 4.49 µM (inactive) | 1.77 | 5.82 µM (inactive) | 1.72 µM (inactive) | > 100 µM (inactive) | > 100 µM (inactive) | 5.66 µM (inactive) | 70.5 µM (inactive) | 22.3 µM (inactive) | > 100 µM (inactive) | 5.5 µM (inactive) |  | 43.7 µM (inactive) |  | 5.57 µM (inactive) | 10 µM (inactive)
O=c1[nH]c(Br)nc2c(N3CCCCC3)c[nH]c12 | > 100 µM (inactive) | > 100 µM (inactive) | > 100 µM (inactive) | > 100 | > 100 µM (inactive) | > 100 µM (inactive) | > 100 µM (inactive) | > 100 µM (inactive) | > 100 µM (inactive) | > 100 µM (inactive) | > 100 µM (inactive) | > 100 µM (inactive) | > 100 µM (inactive) |  | > 100 µM (inactive) | > 100 µM (inactive) | > 100 µM (inactive) | > 100 µM (inactive)
C=C=C(C(=O)OC)[S+]([O-])c1ccccc1[N+](=O)[O-] (stereo unspecified) | > 100 µM (inactive) | > 100 µM (inactive) | > 100 µM (inactive) | 59 | 75.2 µM (inactive) | > 100 µM (inactive) | > 100 µM (inactive) | > 100 µM (inactive) | > 100 µM (inactive) | > 100 µM (inactive) | > 100 µM (inactive) | > 100 µM (inactive) | > 100 µM (inactive) |  | > 100 µM (inactive) | > 100 µM (inactive) | > 100 µM (inactive) | > 100 µM (inactive)
CCOc1ccccc1NC(=O)/C=C1\NC(=O)CS1 | > 100 µM (inactive) |  | > 100 µM (inactive) |  | > 100 µM (inactive) | 50.5 µM (inactive) | > 100 µM (inactive) | > 100 µM (inactive) | > 100 µM (inactive) | > 100 µM (inactive) | > 100 µM (inactive) | > 100 µM (inactive) | 26.9 µM (inactive) |  | > 100 µM (inactive) |  | 62.5 µM (inactive) | > 100 µM (inactive)
O=C(Cc1nc2ccccc2o1)C(=O)Nc1cccc(C(F)(F)F)c1 | > 100 µM (inactive) | > 100 µM (inactive) | > 100 µM (inactive) | > 100 | > 100 µM (inactive) | > 100 µM (inactive) | > 100 µM (inactive) | > 100 µM (inactive) | > 100 µM (inactive) | > 100 µM (inactive) | > 100 µM (inactive) | > 100 µM (inactive) | > 100 µM (inactive) |  | > 100 µM (inactive) | > 100 µM (inactive) | > 100 µM (inactive) | > 100 µM (inactive)
COC1(OC)CC2C=C(S(=O)(=O)c3ccccc3)C1N(Cc1ccccc1)C2=O (stereo unspecified) | 39.4 µM (inactive) | 41.3 µM (inactive) | 19.9 µM (inactive) |  | 16.2 µM (inactive) | 24.9 µM (inactive) | 15.2 µM (inactive) | 17.1 µM (inactive) | 29.2 µM (inactive) |  | 23 µM (inactive) | 88.1 µM (inactive) | 36.5 µM (inactive) | 28.9 µM (inactive) | 34.8 µM (inactive) | 22.6 µM (inactive) |  | 50.9 µM (inactive)
